Experimental data published in patent US20060003348A1, “Omi PDZ modulators” (GENENTECH. INC., priority 2004, published 2006).
Read-outs that look alike come from different tables or passages of the source. Where a SMILES comes first, the peptide text is derived from it. Where no end group is shown, it is not given here.

Biological target: T1, Omi PDZ (GST-Omi PDZ fusion protein) (Homo sapiens, UniProt O43464)
T1 construct: DNA fragment encoding hOmi PDZ domain was cloned into BamHI/XhoI sites of pGEX6P-3 plasmid, creating a GST-hOmiPDZ fusion protein; made in house; host or cells: E. coli BL21(DE3), plasmid pGEX6P-3
T1 sequence (O43464 359-458): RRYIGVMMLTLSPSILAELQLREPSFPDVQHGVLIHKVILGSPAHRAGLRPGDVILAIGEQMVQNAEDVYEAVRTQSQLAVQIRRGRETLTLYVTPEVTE
Test: Competition ELISA affinity assay: peptide blocks GST-Omi PDZ binding to immobilized biotinylated peptide
Details: for IC50 / IC50 (μM): competition ELISA; for fold lower affinity (IC50 increase) relative to SWTMFWV (hOmi_c1): compared with peptide SWTMFWV (hOmi_c1)
Experimental: Affinity Assays—The binding affinities of peptides for Omi PDZ were determined as IC50 values using a previously described competition ELISA (18). […] Assay plates were prepared by immobilizing an amino-terminally biotinylated peptide (biotin-GWTMFWV) on maxisorp plates coated with NeuTravidin and blocked with BSA. A fixed concentration of GST-Omi PDZ fusion protein (20 nM) in PBS, 0.5% BSA, 0.1% Tween 20 (PBT buffer) was preincubated for 1 h with serial dilutions of peptide and then transferred to the assay plates. After 1 h incubation, the plates were washed with PBS, 0.05% Tween 20, incubated for 30 min with HRP/anti-GST antibody (1:10,000) in PBT buffer, washed again, and detected with 3,3′,5,5′-Tetramethyl-benzidine/H2O2 (TMB) peroxidase substrate.
The binding affinity of this ligand to Omi PDZ was measured with ELISA competition assay. […] PDZ-opt is an optimized peptide ligand of Omi PDZ derived from a chemically synthesized peptide library (11) with totally different sequence motif from that of the ligands derived from phage libraries. […] Peptides from libC and peptides Mxi2 and PDZ-opt were synthesized with acetylated N termini and free C termini, unless indicated otherwise. Peptides from libN were synthesized with free N termini and amidation at C termini.

[1] = IC50 (μM), 20 nM GST-Omi PDZ, immobilized biotinylated high affinity peptide, mean
[2] = 20 nM GST-Omi PDZ, immobilized biotinylated high affinity peptide, mean
[3] = 20 nM GST-Omi PDZ, immobilized biotinylated high affinity peptide, mean, read-out: IC50

Compound: Ac-SWTMFWV [hOmi_c1, S W T M F W V]
- IC50 [1]: 3.3 µM

Compound: S H W W G (SHWWG) [hOmi_n1_t4]
- IC50 (μM) [2]: NDI

Compound: SHWWGG [hOmi_n1_t3, S H W W G G]
- IC50 (μM) [2]: NDI

Compound: Ac-MDIELVMI [Mxi2, M D I E L V M I, reference compound]
- IC50 [1]: > 500 µM

Compound: NC(=O)[C@H](Cc1c[nH]c2ccccc12)NC(=O)[C@H](Cc1c[nH]c2ccccc12)NC(=O)[C@@H](N)Cc1c[nH]cn1 [hOmi_n1_t9, H W W] (H-His-Trp-Trp-NH2)
- IC50 [3]: 108 ± 32.2 µM
- effect on binding to Omi PDZ, in words (SHWWGGWLG series) (truncations of SHWWGGWLG (libN), C terminus amidated): comparable affinity as tetrapeptide SHWW

Compound: SHAWGGWL [hOmi_n1_A3, S H A W G G W L]
- IC50 (μM) [2]: NDI

Compound: SHWAGGWL [hOmi_n1_A2, S H W A G G W L]
- IC50 (μM) [2]: NDI

Compound: WGGWLG [hOmi_n1_t8, W G G W L G]
- IC50 (μM) [2]: NDI

Compound: Ac-RFPHFWV-OH [hOmi_c2, R F P H F W V]
- fold lower affinity (IC50 increase) relative to SWTMFWV (hOmi_c1): 50 fold

Compound: CC(=O)N[C@@H](Cc1ccccc1)C(=O)N[C@@H](Cc1c[nH]c2ccccc12)C(=O)N[C@H](C(=O)O)C(C)C [hOmi_c1_t4, F W V] (Ac-Phe-Trp-Val-OH)
- fold lower affinity (IC50 increase) relative to SWTMFWV (hOmi_c1): > 30 fold
- IC50 [3]: 118 ± 32.1 µM

Compound: Ac-GQYYFV-OH [PDZ-Opt, G Q Y Y F V, reference compound]
- fold lower affinity (IC50 increase) relative to SWTMFWV (hOmi_c1): 5 fold
- IC50 [3]: 17.6 ± 5.6 µM

Compound: WWGGWLG [hOmi_n1_t7, W W G G W L G]
- IC50 (μM) [2]: NDI

Compound: H-SHWWGGWL-NH2 [hOmi_n1_t1, S H W W G G W L]
- IC50 [3]: 17.6 ± 3.9 µM

Compound: Ac-SWTMFAV [hOmi_c1_A2, S W T M F A V]
- IC50 (unit printed in the cell (mM), read-out: IC50): > 1000 µM

Compound: SWTMFWV [hOmi_c3, S W T M F W V-CONH2]
- IC50 (μM) [2]: NDI

Compound: NC(=O)[C@H](Cc1c[nH]c2ccccc12)NC(=O)[C@H](Cc1c[nH]c2ccccc12)NC(=O)[C@H](Cc1c[nH]cn1)NC(=O)[C@@H](N)CO [hOmi_n1_t5, S H W W] (H-SHWW-NH2)
- fold lower affinity relative to SHWWGGWLG (hOmi_n1) (truncation series of SHWWGGWLG, C terminus amidated): 3 fold
